Here are results for 26 molecules from patent publication US10058550B2, “Methods of treating heart failure” (priority 2015, dated 2018).

SMILES strings stand for the structures.

This test addresses human APJ receptor (Homo sapiens (Human), UniProt P35414). Description: biochemical. The test is classed as biochemical. The note with it: read-out: Activity hAPJ SPA EC50 IP. The essentials:
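Agonist-stimulated [35S]GTPγS (0.2 nM) binding was read by SPA after 90 min at room temperature. Buffer: 20 mM HEPES pH 7.5 with 5 mM MgCl2, 200 mM NaCl, 3 μM GDP, 0.1% BSA; membranes were from a stable human APJ CHO line. EC50 values are averages of independent runs, fitted by non-linear regression.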

human APJ receptor, sequence (P35414 whole entry): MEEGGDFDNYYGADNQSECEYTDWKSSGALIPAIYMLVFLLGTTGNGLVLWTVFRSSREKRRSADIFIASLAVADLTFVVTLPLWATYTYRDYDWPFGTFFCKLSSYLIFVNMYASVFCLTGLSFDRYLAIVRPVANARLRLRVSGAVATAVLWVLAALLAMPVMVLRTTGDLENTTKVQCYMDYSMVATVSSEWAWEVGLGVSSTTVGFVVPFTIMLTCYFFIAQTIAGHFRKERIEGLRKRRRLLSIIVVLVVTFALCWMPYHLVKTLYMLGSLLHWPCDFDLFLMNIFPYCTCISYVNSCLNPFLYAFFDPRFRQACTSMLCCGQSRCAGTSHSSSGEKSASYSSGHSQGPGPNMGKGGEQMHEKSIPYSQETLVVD

The term EC50 denotes the concentration giving half of the maximal effect. `COc1cccc(-c2nnc(NS(=O)(=O)[C@@H](C)[C@H](OC)c3ncc(C)cn3)n2-c2cc(Cl)cc(Cl)c2)n1` [Example 68.0, (1R,2S)-N-(4-(3,5-dichlorophenyl)-5-(6-methoxy-2-pyridinyl)-4H-1,2,4-triazol-3-yl)-1-methoxy-1-(5-methyl-2-pyrimidinyl)-2-propanesulfonamide]: the EC50 came to 60 nM.

`COc1cccc(-c2nnc(NS(=O)(=O)[C@@H](C)[C@H](OC)c3ncc(C)cn3)n2-c2ccc(F)c(F)c2)n1` [Example 71.0, (1R,2S)-N-(4-(3,4-difluorophenyl)-5-(6-methoxy-2-pyridinyl)-4H-1,2,4-triazol-3-yl)-1-methoxy-1-(5-methyl-2-pyrimidinyl)-2-propanesulfonamide]: the EC50 stood at 210 nM.

With `COc1cccc(-c2nnc(NS(=O)(=O)[C@@H](C)[C@H](OC)c3ncc(C)cn3)n2-c2cccc(C(C)=O)c2)n1` [Example 72.0, (1R,2S)-N-(4-(3-acetylphenyl)-5-(6-methoxy-2-pyridinyl)-4H-1,2,4-triazol-3-yl)-1-methoxy-1-(5-methyl-2-pyrimidinyl)-2-propanesulfonamide], the EC50 was found to be 9.1 nM.

For the molecule `COc1cccc(-c2nnc(NS(=O)(=O)[C@@H](C)[C@H](OC)c3ncc(C)cn3)n2-c2c(Cl)cccc2Cl)n1` [Example 73.0, (1R,2S)-N-(4-(2,6-dichlorophenyl)-5-(6-methoxy-2-pyridinyl)-4H-1,2,4-triazol-3-yl)-1-methoxy-1-(5-methyl-2-pyrimidinyl)-2-propanesulfonamide], the EC50 was 0.76 nM.

For `COc1cccc(-c2nnc(NS(=O)(=O)[C@@H](C)[C@H](OC)c3ncc(C)cn3)n2-c2cccc(C(F)(F)F)c2)n1` [Example 75.0, (1R,2S)-1-methoxy-N-(5-(6-methoxy-2-pyridinyl)-4-(3-(trifluoromethyl)phenyl)-4H-1,2,4-triazol-3-yl)-1-(5-methyl-2-pyrimidinyl)-2-propanesulfonamide], the EC50 worked out at 12 nM.

For `COc1cccc(-c2nnc(NS(=O)(=O)[C@@H](C)[C@H](OC)c3ncc(C)cn3)n2-c2ccc(N(C)C)cc2)n1` [Example 77.0, (1R,2S)-N-(4-(4-(dimethylamino)phenyl)-5-(6-methoxy-2-pyridinyl)-4H-1,2,4-triazol-3-yl)-1-methoxy-1-(5-methyl-2-pyrimidinyl)-2-propanesulfonamide], the EC50 was 7 nM.

Consider `COc1cccc(-c2nnc(NS(=O)(=O)[C@@H](C)[C@H](C)c3ncc(F)cn3)n2-c2ccccc2)n1` [Example 78.0, (2S,3R)-3-(5-fluoro-2-pyrimidinyl)-N-(5-(6-methoxy-2-pyridinyl)-4-phenyl-4H-1,2,4-triazol-3-yl)-2-butanesulfonamide], for which the EC50 worked out at 9.4 nM.

As to `CCO[C@H](c1ncc(F)cn1)[C@H](C)S(=O)(=O)Nc1nnc(-c2cncc(C)c2)n1-c1c(OC)cccc1OC` [Example 79.0, (1R,2S)-N-(4-(2,6-dimethoxyphenyl)-5-(5-methyl-3-pyridinyl)-4H-1,2,4-triazol-3-yl)-1-ethoxy-1-(5-fluoro-2-pyrimidinyl)-2-propanesulfonamide], the EC50 came to 0.41 nM.

For the molecule `COc1cccc(OC)c1-n1c(NS(=O)(=O)[C@@H](C)[C@H](O)c2ncc(F)cn2)nnc1-c1cccnc1` [Example 82.0, (1R,2S)-N-(4-(2,6-dimethoxyphenyl)-5-(3-pyridinyl)-4H-1,2,4-triazol-3-yl)-1-(5-fluoro-2-pyrimidinyl)-1-hydroxy-2-propanesulfonamide], the EC50 was 2.8 nM.

In the case of `COc1cc(-c2nnc(NS(=O)(=O)[C@@H](C)[C@H](C)c3ncc(C)cn3)n2-c2c(OC)cccc2OC)ccn1` [Example 84.0, (2S,3R)-N-(4-(2,6-dimethoxyphenyl)-5-(2-methoxypyridin-4-yl)-4H-1,2,4-triazol-3-yl)-3-(5-methylpyrimidin-2-yl)butane-2-sulfonamide], the EC50 was 5.2 nM.

On to `COc1cccc(OC)c1-n1c(NS(=O)(=O)[C@@H](C)[C@H](C)c2ncc(C)cn2)nnc1-c1ccnc(C)c1` [Example 85.0, (2S,3R)-N-(4-(2,6-dimethoxyphenyl)-5-(2-methylpyridin-4-yl)-4H-1,2,4-triazol-3-yl)-3-(5-methylpyrimidin-2-yl)butane-2-sulfonamide], for which the EC50 was found to be 5.2 nM.

With `COc1cncc(-c2nnc(NS(=O)(=O)[C@@H](C)[C@H](C)c3ncc(C)cn3)n2-c2c(OC)cccc2OC)c1` [Example 86.0, (2S,3R)-N-(4-(2,6-dimethoxyphenyl)-5-(5-methoxypyridin-3-yl)-4H-1,2,4-triazol-3-yl)-3-(5-methylpyrimidin-2-yl)butane-2-sulfonamide], the EC50 stood at 1.3 nM.

For the molecule `COc1cccc(OC)c1-n1c(NS(=O)(=O)[C@@H](C)[C@H](C)c2ncc(C)cn2)nnc1-c1cccc(C)n1` [Example 87.0, (2S,3R)-N-(4-(2,6-dimethoxyphenyl)-5-(6-methylpyridin-2-yl)-4H-1,2,4-triazol-3-yl)-3-(5-methylpyrimidin-2-yl)butane-2-sulfonamide], the EC50 is 0.4 nM.

As to `COc1cccc(OC)c1-n1c(NS(=O)(=O)[C@@H](C)[C@H](OC)c2ncc(Cl)cn2)nnc1-c1cccc(C)n1` [Example 88.0, (1R,2S)-1-(5-chloropyrimidin-2-yl)-N-(4-(2,6-dimethoxyphenyl)-5-(6-methylpyridin-2-yl)-4H-1,2,4-triazol-3-yl)-1-methoxypropane-2-sulfonamide], the EC50 came to 0.37 nM.

As to `COc1cccc(OC)c1-n1c(NS(=O)(=O)[C@H](C)[C@@H](OC)c2ncc(Cl)cn2)nnc1-c1cccc(C)n1` [Example 89.0, (1S,2R)-1-(5-chloropyrimidin-2-yl)-N-(4-(2,6-dimethoxyphenyl)-5-(6-methylpyridin-2-yl)-4H-1,2,4-triazol-3-yl)-1-methoxypropane-2-sulfonamide], the EC50 was 11 nM.

`COc1ncnc(OC)c1-n1c(NS(=O)(=O)[C@@H](C)[C@H](OC)c2ncc(C)cn2)nnc1-c1cccc(C)n1` [Example 90.0, (1R,2S)-N-(4-(4,6-dimethoxypyrimidin-5-yl)-5-(6-methylpyridin-2-yl)-4H-1,2,4-triazol-3-yl)-1-methoxy-1-(5-methylpyrimidin-2-yl)propane-2-sulfonamide]: the EC50 amounted to 2.4 nM.

Take `COc1cccc(-c2nnc(NS(=O)(=O)C(C)C)n2-c2c(OC)cccc2OC)n1` [Example 100.0, N-(4-(2,6-dimethoxyphenyl)-5-(6-methoxypyridin-2-yl)-4H-1,2,4-triazol-3-yl)propane-2-sulfonamide]: the EC50 was determined as 110 nM.

Take `COc1cc(-c2nnc(NS(=O)(=O)[C@@H](C)[C@H](OC)c3ncc(C)cn3)n2-c2c(OC)cccc2OC)ccn1` [Example 101.0, (1R,2S)-N-(4-(2,6-dimethoxyphenyl)-5-(2-methoxypyridin-4-yl)-4H-1,2,4-triazol-3-yl)-1-methoxy-1-(5-methylpyrimidin-2-yl)propane-2-sulfonamide]: the 50% effective concentration (EC50) was 7 nM.

In the case of `COc1cccc(OC)c1-n1c(NS(=O)(=O)[C@@H](C)[C@H](OC)c2ncc(C)cn2)nnc1-c1ccncc1` [Example 102.0, (1R,2S)-N-(4-(2,6-dimethoxyphenyl)-5-(pyridin-4-yl)-4H-1,2,4-triazol-3-yl)-1-methoxy-1-(5-methylpyrimidin-2-yl)propane-2-sulfonamide], the EC50 came to 18 nM.

For `COc1cccc(OC)c1-n1c(NS(=O)(=O)[C@@H](C)[C@H](OC)c2ncc(C)cn2)nnc1-c1cccc(C)n1` [Example 103.0, (1R,2S)-N-(4-(2,6-dimethoxyphenyl)-5-(6-methylpyridin-2-yl)-4H-1,2,4-triazol-3-yl)-1-methoxy-1-(5-methylpyrimidin-2-yl)propane-2-sulfonamide], the EC50 is 0.51 nM.

For `COc1cccc(OC)c1-n1c(NS(=O)(=O)[C@@H](C)[C@H](OC)c2ncc(C)cn2)nnc1-c1ccnc(C)c1` [Example 104.0, (1R,2S)-N-(4-(2,6-dimethoxyphenyl)-5-(2-methylpyridin-4-yl)-4H-1,2,4-triazol-3-yl)-1-methoxy-1-(5-methylpyrimidin-2-yl)propane-2-sulfonamide], the EC50 worked out at 2.4 nM.

Turning to `CCOc1cccc(-c2nnc(NS(=O)(=O)[C@@H](C)[C@H](C)c3ncc(F)cn3)n2-c2c(OC)cccc2OC)n1` [Example 161.0, (2S,3R)-N-(4-(2,6-dimethoxyphenyl)-5-(6-ethoxy-2-pyridinyl)-4H-1,2,4-triazol-3-yl)-3-(5-fluoro-2-pyrimidinyl)-2-butanesulfonamide], the EC50 worked out at 0.062 nM.

With `COc1cccc(OC)c1-n1c(NS(=O)(=O)[C@@H](C)[C@H](C)c2ncc(F)cn2)nnc1-c1cccc(=O)[nH]1` [Example 168.0, (2S,3R)-N-(4-(2,6-dimethoxyphenyl)-5-(6-oxo-1,6-dihydro-2-pyridinyl)-4H-1,2,4-triazol-3-yl)-3-(5-fluoro-2-pyrimidinyl)-2-butanesulfonamide], the EC50 stood at 110 nM.

Consider `CCOc1cccc(-c2nnc(NS(=O)(=O)[C@@H](C)[C@H](OC)c3ncc(C)cn3)n2-c2c(OC)cccc2OC)n1` [Example 172.0, (1R,2S)-N-(4-(2,6-dimethoxyphenyl)-5-(6-ethoxypyridin-2-yl)-4H-1,2,4-triazol-3-yl)-1-methoxy-1-(5-methylpyrimidin-2-yl)propane-2-sulfonamide], for which the EC50 was determined as 0.065 nM.

Regarding `CCc1cccc(-c2nnc(NS(=O)(=O)[C@@H](C)[C@H](OC)c3ncc(C)cn3)n2-c2c(OC)cccc2OC)n1` [Example 174.0, (1R,2S)-N-(4-(2,6-dimethoxyphenyl)-5-(6-ethylpyridin-2-yl)-4H-1,2,4-triazol-3-yl)-1-methoxy-1-(5-methylpyrimidin-2-yl)propane-2-sulfonamide], the EC50 was 0.2 nM.

In the case of `CCc1cccc(-c2nnc(NS(=O)(=O)[C@@H](C)[C@H](O)c3ncc(C)cn3)n2-c2c(OC)cccc2OC)n1` [Example 175.0, (1R,2S)-N-(4-(2,6-dimethoxyphenyl)-5-(6-ethylpyridin-2-yl)-4H-1,2,4-triazol-3-yl)-1-hydroxy-1-(5-methylpyrimidin-2-yl)propane-2-sulfonamide], the EC50 was determined as 0.39 nM.
